The target of series [1] is T1, HIV-1 IN (Human immunodeficiency virus type 1 group M subtype B, UniProt P04585). Put plainly: Overall HIV-1 IN integration assay (ELISA). The class given is biochemical.
Series [2] concerns HIV-1. Kind of series: MT-4/MTT anti-HIV assay (HIV-induced cytopathic effect). Type of series: cell-based. To be noted: Human immunodeficiency virus 1, MT4; MT-4 cells; read-out: HIV-1 activity inhibition EC50. The protocol:
The inhibitory effect of antiviral drugs on the HIV-induced cytopathic effect (CPE) in human lymphocyte MT-4 cell culture was determined by the MT-4/MTT-assay (Pauwels et al., [1988]). This assay is based on the reduction of the yellow colored 3-(4,5-dimethylthiazol-2-yl)-2,5-diphenyltetrazolium bromide (MTT) by mitochondrial dehydrogenase of metabolically active cells to a blue formazan derivative, which can be measured spectrophotometrically. The 50% cell culture infective dose of the HIV strains was determined by titration of the virus stock using MT-4 cells. For the drug susceptibility assays, MT-4 cells were infected with 100–300 50% cell culture infective doses of the HIV strains in the presence of 5-fold serial dilutions of the antiviral drugs. The concentration of the compound achieving 50% protection against the CPE of HIV, which is defined as the 50% effective concentration (EC50), was determined. In parallel, the concentration of the compound destroying 50% of the MT-4 cells, which is defined as the 50% cytotoxic concentration (CC50), was determined as well.

Series [3] can be described thus: MT-4/MTT cytotoxicity assay. To be noted: human, MT-4 cells; read-out: Cellular toxicity CC50. Type of series: cell-based, human. The protocol: (§1) The inhibitory effect of antiviral drugs on the HIV-induced cytopathic effect (CPE) in human lymphocyte MT-4 cell culture was determined by the MT-4/MTT-assay (Pauwels et al., [1988]). […] The 50% cell culture infective dose of the HIV strains was determined by titration of the virus stock using MT-4 cells. For the drug susceptibility assays, MT-4 cells were infected with 100–300 50% cell culture infective doses of the HIV strains in the presence of 5-fold serial dilutions of the antiviral drugs. […] In parallel, the concentration of the compound destroying 50% of the MT-4 cells, which is defined as the 50% cytotoxic concentration (CC50), was determined as well.

The subject of series [4] is MT-4 cells. Kind of series: MT-4/MTT cytotoxicity assay. The class given is cell-based, human. The protocol: as §1
The target in series [5] is T2, HIV-1 IN strand transfer activity (Human immunodeficiency virus type 1 group M subtype B, UniProt P04585). Kind of series: HIV-1 IN strand transfer assay (ELISA, pre-cleaved oligonucleotide substrate).
Experimental: The enzymatic integration reactions were carried out as previously described with minor modifications (Debyser et al., [2001]; Christ et al., [2011]). To determine the susceptibility of the HIV-1 IN enzyme to different compounds, an enzyme-linked immunosorbent assay (ELISA) adapted from Hwang et al. was used (Hwang et al., [2000]). The overall integration assay uses an oligonucleotide substrate for which one oligonucleotide (5′-[sequence]-3′) is labeled with biotin at the 3′ end and the other oligonucleotide (5′-[sequence]-3′) is labeled with digoxigenin at the 5′ end. For the strand transfer assay, a pre-cleaved oligonucleotide substrate (the second oligonucleotide lacks GT [underlined] at the 3′ end) was used. The IN enzyme was diluted in 750 mM NaCl, 10 mM Tris (pH: 7.6), 10% glycerol, and 1 mM β-mercaptoethanol. To perform the reaction, 4 μL of diluted IN (corresponding to a concentration of 1.6 μM) and 4 μL of annealed oligonucleotides (7 nM) were added in a final reaction volume of 40 μL containing 10 mM MgCl2, 5 mM dithiothreitol, 20 mM HEPES (pH 7.5), 5% polyethylene glycol, and 15% dimethyl sulfoxide. As such, the final concentration of IN in this assay was 160 nM. The reaction was carried out for 1 h at 37°C. Reaction products were denatured with 30 mM NaOH and detected by ELISA on avidin-coated plates.
The subject of series [6] is HIV-1. Further details: method as in Sirous et al., 2019. To be noted: MT-4 cells; previously reported lead; ref Sirous et al., 2019; read-out: HIV-1 activity inhibition EC50; cited from earlier work.
The target of series [7] is T1, HIV-1 IN. Further details: method as in Sirous et al., 2019. To be noted: read-out: Overall HIV-1 IN activity inhibition IC50; previously reported lead; ref Sirous et al., 2019; cited from earlier work.
For series [8], the system named is MT-4 cells. Further details: method as in Sirous et al., 2019. To be noted: previously reported lead, cited from earlier work; for CC50: ref Sirous et al., 2019, read-out: Cellular toxicity CC50; for TI (therapeutic index, CC50/EC50 ratio): ref Sirous et al., 2019.
Series [9] has as its target T2, HIV-1 IN strand transfer activity. Further details: method as in Sirous et al., 2019. To be noted: read-out: HIV-1 IN strand transfer activity inhibition IC50; previously reported lead; ref Sirous et al., 2019; cited from earlier work.

Like-named read-outs stand apart in the source and are kept apart here. Some results are limits rather than exact numbers.

Take `Cc1cc(=O)c(O)c(C(=O)NCc2cc(F)cc(-c3ccccn3)c2)o1` [HPCAR-28, N-(3-Fluoro-5-(pyridin-2-yl)benzyl)-3-hydroxy-6-methyl-4-oxo-4H-pyran-2-carboxamide]: the half-maximal inhibitory concentration (IC50) against HIV-1 IN [1] turned out to be 65 ± 10 nM; in series [5] it was 3370 ± 380 nM. Besides, at HIV-1 IN [1] (vs HPb IC50 = 0.37 μM), the “improvement in anti-IN potency compared to HPb” value was 6 fold. Also, in the series on HIV-1 [2], the EC50 is 230 ± 180 nM. The CC50 in [3] was over 250000 nM. In the series with MT-4 cells [4], the “TI (therapeutic index, CC50/EC50 ratio)” value is >1,087.
With `Cc1nc(-c2cccc(CNC(=O)c3oc(C)cc(=O)c3O)c2)c[nH]1` [HPCAR-89, 3-Hydroxy-6-methyl-N-(3-(2-methyl-1H-imidazol-4-yl)benzyl)-4-oxo-4H-pyran-2 carboxamide], the IC50 came out at 270 ± 100 nM against HIV-1 IN [1] and 4000 ± 340 nM in series [5]. Moreover, in the series on HIV-1 [2], the EC50 came out at 2340 ± 460 nM. Further, the cytotoxic concentration (CC50) in series [3] was over 125000 nM. Also, in the series with MT-4 cells [4], the “TI (therapeutic index, CC50/EC50 ratio)” value is recorded as over 53.4.
Take `Cc1cc(=O)c(O)c(C(=O)NCc2cccc(-n3cccc3)c2)o1` [HPCAR-142, N-(3-(1H-Pyrrol-1-yl)benzyl)-3-hydroxy-6-methyl-4-oxo-4H-pyran-2-carboxamide]: the half-inhibitory concentration (IC50) is 1970 ± 1060 nM against HIV-1 IN [1] and 17490 ± 130 nM in series [5]. Moreover, the EC50 in the series on HIV-1 [2] amounted to 4210 ± 520 nM. In addition, the CC50 in series [3] is over 85400 nM. In the series with MT-4 cells [4], the “TI (therapeutic index, CC50/EC50 ratio)” value was over 20.3.
In the case of `Cc1cc(=O)c(O)c(C(=O)NCc2ccc(F)cc2)o1` [HPb], in the series on HIV-1 [6], the EC50 was 1720 ± 990 nM. In addition, the half-maximal inhibitory concentration (IC50) at HIV-1 IN [7] is 370 ± 170 nM; in [9], 1405 ± 10 nM. Further, in the series on MT-4 cells [8], the half-maximal cytotoxic concentration (CC50) was over 250000 nM. In the series with MT-4 cells [8], the “TI (therapeutic index, CC50/EC50 ratio)” value was over 145.
With `Cc1cc(=O)c(O)c(C(=O)NCc2ccc(Cl)cc2)o1` [HPd], in the series on HIV-1 [6], the 50% effective concentration (EC50) is 1950 ± 930 nM. The IC50 on HIV-1 IN [7] was 700 ± 310 nM. For the same compound, in the series with MT-4 cells [8], the CC50 was 196000 ± 4400 nM and the “TI (therapeutic index, CC50/EC50 ratio)” value is given as 100.3. The half-maximal inhibitory concentration (IC50) in series [9] was 1540 ± 200 nM.
On to `Cc1nnc(C(=O)NC(C)(C)c2nc(C(=O)NCc3ccc(F)cc3)c(O)c(=O)n2C)o1` [RLT, Raltegravir, reference compound], for which the 50% effective concentration (EC50) with HIV-1 [2] is 13 ± 8 nM. For the same compound, the CC50 in series [3] was over 18300 nM.

These data come from article PMC6700280, “Identification of Novel 3-Hydroxy-pyran-4-One Derivatives as Potent HIV-1 Integrase Inhibitors Using in silico Structure-Based Combinatorial Library Design Approach” (Frontiers in Chemistry, 2019).
